Patent US20140094451A1, “PREVENTIVE OR REMEDY FOR GLAUCOMA” (Kowa Co., Ltd., priority 2005, published 2014)

How the values were obtained:
[1] = system: rabbits with normal IOP; conditions: cited from earlier work
[2] = system: Japanese white rabbits; assay: Ocular hypotensive effect (IOP change from initial IOP) after instillation, alone or in combination; format: in vivo; conditions: FIG. 2; single drug treatment groups; instillation 50 μL, male JW rabbits
Description: To examine usefulness of combination use of a Rho kinase inhibitor and an α1 blocker, the ocular hypotensive effects were compared by administering either of these drugs alone or both in combination to laboratory animals. (S)-(−)-1-(4-fluoro-5-isoquinolinesulfonyl)-2-methyl-1,4-homopiperazine-hydrochloride dihydrate was dissolved in physiological saline, and the solution was neutralized (pH 6.0) by adding sodium dihydrogenphosphate and sodium hydroxide to prepare a (S)-(−)-1-(4-fluoro-5-isoquinolinesulfonyl)-2-methyl-1,4-homopiperazine solution at a desired concentration. The commercially available “Eril® S Injection” (Asahi Kasei Pharma) was used as it was. The commercially available “Detantol 0.01% Ophthalmic Solution” (Santen Pharmaceutical Co., Ltd.) was used as it was. The ocular hypotensive effect was examined after the combination use of (S)-(−)-1-(4-fluoro-5-isoquinolinesulfonyl)-2-methyl-1,4-homopiperazine and bunazosin. As a control, the ocular hypotensive effect was also examined after the use of bunazosin alone or (S)-(−)-1-(4-fluoro-5-isoquinolinesulfonyl)-2-methyl-1,4-homopiperazine alone. Similarly, the ocular hypotensive effect was examined after the combination use of hexahydro-1-(5-isoquinolinesulfonyl)-1H-1,4-diazepine and bunazosin. […]

Row | SMILES | time after instillation from which IOP is lowered [1] | time of maximum ocular hypotensive effect after instillation [1] | maximum IOP reduction ([1]; instillation, concentration of 0.10) | time after instillation when the ocular hypotensive effect disappeared [2]
1 | C[C@@H](N)c1ccc(C(=O)Nc2ccnc3[nH]ccc23)cc1 [Y-39983] | 1 h | 2 to 4 h | 15 mmHg | 
2 | CCCC(=O)N1CCCN(c2nc(N)c3cc(OC)c(OC)cc3n2)CC1 [bunazosin] |  |  |  | 5 h
3 | O=S(=O)(c1cccc2cnccc12)N1CCCNCC1 [hexahydro-1-(5-isoquinolinesulfonyl)-1H-1,4-diazepine] |  |  |  | 5 h
